Experimental data published in publication PMC11551755, “Structure-based discovery of first inhibitors targeting the helicase activity of human PIF1” (Nucleic Acids Research, 2024).

Molecular target: T1, FLhPIF1 (Homo sapiens, UniProt Q9H611)
T1 construct: Full length human PIF1 (FLhPIF1) was expressed and purified as a His-SUMO fusion; His-SUMO (cleaved yes); made in house; 'following similar protocols' to hPIF1HD (ArcticExpress BL21(DE3) E. coli)
T1 sequence (Q9H611 1-641): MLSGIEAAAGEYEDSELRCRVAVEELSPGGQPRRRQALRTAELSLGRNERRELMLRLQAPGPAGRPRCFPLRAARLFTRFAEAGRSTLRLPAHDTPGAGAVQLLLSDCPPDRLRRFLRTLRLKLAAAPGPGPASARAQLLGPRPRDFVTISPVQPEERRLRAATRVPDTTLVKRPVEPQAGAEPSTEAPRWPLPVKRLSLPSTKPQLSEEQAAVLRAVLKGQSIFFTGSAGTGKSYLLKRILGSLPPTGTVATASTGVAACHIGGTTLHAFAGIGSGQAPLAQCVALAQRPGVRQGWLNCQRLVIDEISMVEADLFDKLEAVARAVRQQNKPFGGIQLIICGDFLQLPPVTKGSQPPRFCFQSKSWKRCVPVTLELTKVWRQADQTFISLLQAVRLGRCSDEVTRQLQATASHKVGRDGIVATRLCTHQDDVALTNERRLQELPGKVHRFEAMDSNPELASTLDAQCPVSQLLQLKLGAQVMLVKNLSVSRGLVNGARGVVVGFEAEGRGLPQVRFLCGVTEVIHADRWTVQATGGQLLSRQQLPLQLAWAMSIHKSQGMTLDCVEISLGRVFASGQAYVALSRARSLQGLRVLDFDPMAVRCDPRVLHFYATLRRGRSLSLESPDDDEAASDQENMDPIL
Assay: DNA-dependent ATPase assay
Assay type: biochemical
Conditions: 1 mM compound, 25 nM FLhPIF1, 250 nM d(T)55, 10 min at 37°C
Description: ATP hydrolysis was measured under helicase reaction conditions with 25 nM FLhPIF1 and 250 nM oligo d(T)55 and 0.0125 μM [γ-^32P]ATP (6000 Ci/mmol). Released phosphate was quantified using the charcoal binding assay of Iggo and Lane ([45]) after 10 min at 37°C.
Supplementary Figure 11. ATPase activity determined with and without inhibitors. ATPase assays, 25 nM FLhPIF1, 250 nM d(T)55 ssDNA, were performed for 10 minutes at 37 °C under helicase reaction conditions, with and without 1 mM compound (n = 3). Compound 2 was not included in the analysis due to lack of available material. […] The data are broadly in agreement with the results of ssDNA binding EMSA except compound 6 (see discussion).

In the case of `Nc1nc(-c2ccc(C(=O)c3ccccc3)cc2)cs1` [Compound 6], the “inhibition of DNA-dependent ATPase” value is reported as “effective inhibitor of DNA-dependent ATPase”.
